Data taken from ChEMBL document CHEMBL2331255, “Carbonic anhydrase inhibitors: benzenesulfonamides incorporating cyanoacrylamide moieties are low nanomolar/subnanomolar inhibitors of the tumor-associated isoforms IX and XII” (Bioorg Med Chem, 2013).

How the values were obtained:
[1] = molecular target: Carbonic anhydrase 9 (Homo sapiens, UniProt Q16790); assay: Inhibition of human carbonic anhydrase 9 preincubated for 15 mins by CO2 hydration stopped-flow assay
[2] = molecular target: Carbonic anhydrase 2 (Homo sapiens, UniProt P00918); assay: Inhibition of human carbonic anhydrase 2 preincubated for 15 mins by CO2 hydration stopped-flow assay
[3] = molecular target: Carbonic anhydrase 12 (Homo sapiens, UniProt O43570); assay: Inhibition of human carbonic anhydrase 12 preincubated for 15 mins by CO2 hydration stopped-flow assay
[4] = molecular target: Carbonic anhydrase 1 (Homo sapiens, UniProt P00915); assay: Inhibition of human carbonic anhydrase 1 preincubated for 15 mins by CO2 hydration stopped-flow assay
Chain of Carbonic anhydrase 1 (P00915 whole entry): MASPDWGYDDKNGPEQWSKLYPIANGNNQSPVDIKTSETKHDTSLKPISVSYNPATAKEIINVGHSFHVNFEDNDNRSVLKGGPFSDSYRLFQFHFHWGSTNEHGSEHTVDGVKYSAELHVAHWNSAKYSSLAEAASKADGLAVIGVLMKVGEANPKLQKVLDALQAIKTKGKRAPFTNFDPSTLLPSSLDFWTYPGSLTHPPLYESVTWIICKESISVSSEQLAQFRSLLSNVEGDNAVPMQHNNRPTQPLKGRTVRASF

Chain of Carbonic anhydrase 12 (O43570 whole entry): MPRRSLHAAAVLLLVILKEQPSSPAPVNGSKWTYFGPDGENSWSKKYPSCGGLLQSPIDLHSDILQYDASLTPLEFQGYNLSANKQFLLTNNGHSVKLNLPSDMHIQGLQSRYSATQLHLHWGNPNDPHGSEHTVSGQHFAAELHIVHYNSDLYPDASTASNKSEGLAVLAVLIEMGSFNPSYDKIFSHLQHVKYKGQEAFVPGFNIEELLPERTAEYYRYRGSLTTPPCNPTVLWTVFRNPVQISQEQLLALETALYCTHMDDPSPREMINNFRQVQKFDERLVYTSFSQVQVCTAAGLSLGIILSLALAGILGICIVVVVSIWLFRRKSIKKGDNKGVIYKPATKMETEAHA

Row | Ki [1] [nM] | SMILES | other results
1 | 5.2 | N#CCC(=O)Nc1ccc(S(N)(=O)=O)cc1 | 
2 | 5.4 | COc1cc(/C=C(\C#N)C(=O)Nc2ccc(S(N)(=O)=O)cc2)ccc1O | 
3 | 0.96 | COc1cc(OC)c(OC)cc1/C=C(\C#N)C(=O)Nc1ccc(S(N)(=O)=O)cc1 | 
4 | 21.2 | COc1ccc(/C=C(\C#N)C(=O)Nc2ccc(S(N)(=O)=O)cc2)cc1OC | 
5 | 0.65 | N#C/C(=C\c1ccc(O)c(O)c1)C(=O)Nc1ccc(S(N)(=O)=O)cc1 | 
6 | 20.5 | COc1cc(/C=C(\C#N)C(=O)Nc2ccc(S(N)(=O)=O)cc2)cc(OC)c1OC | 
7 | 35.6 | N#C/C(=C\c1ccc(Cl)cc1Cl)C(=O)Nc1ccc(S(N)(=O)=O)cc1 | 
8 | 0.93 | N#C/C(=C\c1ccc([N+](=O)[O-])cc1)C(=O)Nc1ccc(S(N)(=O)=O)cc1 | 
9 | 3.4 | CN(C)c1ccc(/C=C(\C#N)C(=O)Nc2ccc(S(N)(=O)=O)cc2)cc1 | 
10 | 12.8 | N=c1oc2ccccc2cc1C(=O)Nc1ccc(S(N)(=O)=O)cc1 | 
11 | 0.86 | COc1ccc(/C=C(\C#N)C(=O)Nc2ccc(S(N)(=O)=O)cc2)cc1 | 
12 | 3.7 | N#C/C(=C\c1cccs1)C(=O)Nc1ccc(S(N)(=O)=O)cc1 | 
13 | 4.3 | N#C/C(=C\c1ccco1)C(=O)Nc1ccc(S(N)(=O)=O)cc1 | Ki [2]: 5.5 nM; Ki [3]: 6.3 nM; Ki [4]: 6.1 nM
14 | 0.67 | N#C/C(=C\c1ccc(O)cc1)C(=O)Nc1ccc(S(N)(=O)=O)cc1 | 
15 | 0.33 | CC(=O)C1=NN(c2ccccc2)/C(=C(\C#N)C(=O)Nc2ccc(S(N)(=O)=O)cc2)S1 | 
16 | 32.6 | COc1ccccc1/C=C(\C#N)C(=O)Nc1ccc(S(N)(=O)=O)cc1 | Ki [2]: 6.9 nM; Ki [3]: 0.6 nM; Ki [4]: 71 nM
17 | 5.8 | N#C/C(C(=O)Nc1ccc(S(N)(=O)=O)cc1)=C(\S)Nc1ccccc1 | 
18 | 9.5 | N#C/C(=N\Nc1ccccc1)C(=O)Nc1ccc(S(N)(=O)=O)cc1 | 

Row | SMILES | Ki [1] [nM] | other results
19 | N#C/C(=C\c1ccccc1Cl)C(=O)Nc1ccc(S(N)(=O)=O)cc1 | 8.9 | 
20 | N#C/C(=C\C=C\c1ccccc1)C(=O)Nc1ccc(S(N)(=O)=O)cc1 | 4.9 | 
